According to article PMC7480010 (Journal of biomolecular screening, 2015):

System: MDA-MB-231
Type: cell-based, human
Conditions: anisomycin stimulation

## Cc1ccc(-n2nc(C(C)(C)C)cc2NC(=O)Nc2ccc(OCCN3CCOCC3)c3ccccc23)cc1 [BIRB-796]
  level of phosphorylated/activated p38: reduces in the overall level of phosphorylated p38
  phosphorylation status of SAPK/JNK: reduces the phosphorylation of JNK
